Like-named read-outs stand apart in the source and are kept apart here.
What was measured:
Assay type in all cases: in vivo
[1] = tested on: healthy male and female subjects; experiment: Human Phase 1 single rising dose safety and tolerability of GC4403
Protocol: (§1) In a Phase 1 randomized, double-blind, placebo-controlled single rising dose safety, tolerability and pharmacokinetics study, 54 healthy male and female subjects were dosed from 2.2 to 25 mg of GC4403 administered intravenously over 30 minutes. Disposition of GC4403 is multi-exponential and follows linear pharmacokinetics with generally proportional increases in AUC and Cmax with increasing dose over the dose ranges studied. […] GC4403 is excreted unchanged in the urine and accounts for approximately 9 to 17% of the dose administered. No significant cardiovascular or vital sign effects, no significant physical examination abnormalities, and no significant abnormalities in routine clinical laboratory assessments were observed. Facial tingling, generalized tingling, paraesthesias and facial warmth were reported in a dose responsive manner, occurring at the 16.7 and 25 mg GC4403 doses.

[2] = Human Phase 1 pharmacokinetics of GC4403; conditions: both sexes, plasma; for AUC(0-t): read-out: AUC0-24 h
Protocol: as §1
As part of the conduct of the Phase 1a clinical studies for GC4403 and GC4419 described in the Examples herein, plasma samples were collected for measuring the concentration of parent compounds (GC4403 and GC4419) after intravenous infusion. Table 3 illustrates the pharmacokinetic parameter, area under the curve (AUC), representing the total exposure of the subject to the drugs over time.

[3] = GC4403 28-day IV toxicity in dog; conditions: both sexes, dog, in vivo; beagle dogs, IV, 28 consecutive days; read-out: no observed adverse effect level (NOAEL)
Protocol: GC4403 was evaluated in a Good Laboratory Practice (GLP)-regulated study in beagle dogs. GC4403 was administered intravenously (IV) via slow bolus dose, once daily, to beagle dogs for 28 consecutive days. GC4403 was administered IV into the cephalic vein (0.5 mL/kg) to 3 groups of dogs (4 animals/sex/group) at dosages of 1.0, 3.0 and 6.0 mg/kg with a fourth group receiving vehicle (26 mM sodium bicarbonate in normal saline). […] There were no test article-related differences in group mean hematology, coagulation, or clinical chemistry parameters or urinalysis parameters after 28 days of treatment in any dosing group. At necropsy on day 29, there were neither test-article related gross macroscopic findings nor test-article-related differences in organ weight. No test-article-related histopathological lesions were present. There were no test-article-related electrocardiology (ECG) effects when evaluated on day 27.

[Cl][Mn-5]1234([Cl])[n+]5c6cccc5C[NH+]1[C@@H]1CCCC[C@H]1[NH+]2CC[NH+]3[C@@H]1CCCC[C@H]1[NH+]4C6 (some centres unmarked) [GC4403]
184 ng·h/mL: AUC(0-t) ([2]; 2.2 mg IV over 30 minutes)
310 ng·h/mL: AUC(0-t) ([2]; 3.3 mg IV over 30 minutes)
10 (87.3) N (%): Any Event (treatment-emergent adverse event) ([1]; 25.0 mg, 12 subjects dosed)
~1.5 h: half-life ([2]; IV over 30 minutes, read-out: terminal elimination half-life (converted))
2 (16.7) N (%): Lightheadedness (treatment-emergent adverse event) ([1]; 25.0 mg, 12 subjects dosed)
3 (25.0) N (%): Tingling (treatment-emergent adverse event) ([1]; 25.0 mg, 12 subjects dosed)
4 (33.3) N (%): Injection Site Pain (treatment-emergent adverse event) ([1]; 25.0 mg, 12 subjects dosed)
1 (8.3) N (%): Discolored Urine (treatment-emergent adverse event) ([1]; 25.0 mg, 12 subjects dosed) | Drowsiness (treatment-emergent adverse event) ([1]; 25.0 mg, 12 subjects dosed) | Facial Warmth (treatment-emergent adverse event) ([1]; 25.0 mg, 12 subjects dosed) | Feeling Drunk (treatment-emergent adverse event) ([1]; 25.0 mg, 12 subjects dosed) | Headache (treatment-emergent adverse event) ([1]; 25.0 mg, 12 subjects dosed) | Inj. Site Pressure (treatment-emergent adverse event) ([1]; 25.0 mg, 12 subjects dosed) | Inj. Site Reaction (treatment-emergent adverse event) ([1]; 25.0 mg, 12 subjects dosed) | Paresthesia (treatment-emergent adverse event) ([1]; 25.0 mg, 12 subjects dosed) | Skin Tightness (treatment-emergent adverse event) ([1]; 25.0 mg, 12 subjects dosed) | Taste Perversion (treatment-emergent adverse event) ([1]; 25.0 mg, 12 subjects dosed)
1 (25) N (%): Cough (treatment-emergent adverse event) ([1]; 16.7 mg, 4 subjects dosed) | Headache (treatment-emergent adverse event) ([1]; 16.7 mg, 4 subjects dosed) | Injection Site Pain (treatment-emergent adverse event) ([1]; 16.7 mg, 4 subjects dosed)
1510 ng·h/mL: AUC(0-t) ([2]; 16.7 mg IV over 30 minutes)
1050 ng·h/mL: AUC(0-t) ([2]; 11.1 mg IV over 30 minutes)
0 (0) N (%): Taste Perversion (treatment-emergent adverse event) ([1]; 7.4 mg, 4 subjects dosed) | Tingling (treatment-emergent adverse event) ([1]; 7.4 mg, 4 subjects dosed) | Tingling Mouth (treatment-emergent adverse event) ([1]; 7.4 mg, 4 subjects dosed) | Any Event (treatment-emergent adverse event) ([1]; 11.1 mg, 4 subjects dosed) | Conjunctivitis (treatment-emergent adverse event) ([1]; 11.1 mg, 4 subjects dosed) | Cough (treatment-emergent adverse event) ([1]; 11.1 mg, 4 subjects dosed) | Discolored Urine (treatment-emergent adverse event) ([1]; 11.1 mg, 4 subjects dosed) | Drowsiness (treatment-emergent adverse event) ([1]; 11.1 mg, 4 subjects dosed) | Facial Warmth (treatment-emergent adverse event) ([1]; 11.1 mg, 4 subjects dosed) | Feeling Drunk (treatment-emergent adverse event) ([1]; 11.1 mg, 4 subjects dosed) | Headache (treatment-emergent adverse event) ([1]; 11.1 mg, 4 subjects dosed) | Inj. Site Pressure (treatment-emergent adverse event) ([1]; 11.1 mg, 4 subjects dosed) | Inj. Site Reaction (treatment-emergent adverse event) ([1]; 11.1 mg, 4 subjects dosed) | Injection Site Pain (treatment-emergent adverse event) ([1]; 11.1 mg, 4 subjects dosed) | Lightheadedness (treatment-emergent adverse event) ([1]; 11.1 mg, 4 subjects dosed) | Paresthesia (treatment-emergent adverse event) ([1]; 11.1 mg, 4 subjects dosed) | Skin Tightness (treatment-emergent adverse event) ([1]; 11.1 mg, 4 subjects dosed) | Taste Perversion (treatment-emergent adverse event) ([1]; 11.1 mg, 4 subjects dosed) | Tingling (treatment-emergent adverse event) ([1]; 11.1 mg, 4 subjects dosed) | Tingling Mouth (treatment-emergent adverse event) ([1]; 11.1 mg, 4 subjects dosed) | Conjunctivitis (treatment-emergent adverse event) ([1]; 16.7 mg, 4 subjects dosed) | Discolored Urine (treatment-emergent adverse event) ([1]; 16.7 mg, 4 subjects dosed) | Drowsiness (treatment-emergent adverse event) ([1]; 16.7 mg, 4 subjects dosed) | Facial Warmth (treatment-emergent adverse event) ([1]; 16.7 mg, 4 subjects dosed) | Feeling Drunk (treatment-emergent adverse event) ([1]; 16.7 mg, 4 subjects dosed) | Inj. Site Pressure (treatment-emergent adverse event) ([1]; 16.7 mg, 4 subjects dosed) | Inj. Site Reaction (treatment-emergent adverse event) ([1]; 16.7 mg, 4 subjects dosed) | Lightheadedness (treatment-emergent adverse event) ([1]; 16.7 mg, 4 subjects dosed) | Paresthesia (treatment-emergent adverse event) ([1]; 16.7 mg, 4 subjects dosed) | Skin Tightness (treatment-emergent adverse event) ([1]; 16.7 mg, 4 subjects dosed) | Taste Perversion (treatment-emergent adverse event) ([1]; 16.7 mg, 4 subjects dosed) | Tingling Mouth (treatment-emergent adverse event) ([1]; 16.7 mg, 4 subjects dosed) | Conjunctivitis (treatment-emergent adverse event) ([1]; 25.0 mg, 12 subjects dosed) | Cough (treatment-emergent adverse event) ([1]; 25.0 mg, 12 subjects dosed)
not established: maximum tolerated dose (MTD) ([1]; 2.2 to 25 mg IV over 30 minutes)
no severe adverse events: tolerability of single doses up to 25 mg ([1]; healthy subjects)
595 ng·h/mL: AUC(0-t) ([2]; 7.4 mg IV over 30 minutes)
2560 ng·h/mL: AUC(0-t) ([2]; 25 mg IV over 30 minutes)
5 (41.7) N (%): Tingling Mouth (treatment-emergent adverse event) ([1]; 25.0 mg, 12 subjects dosed)
1 mg/kg/day: NOAEL at 28 days [3]
453 ng·h/mL: AUC(0-t) ([2]; 4.9 mg IV over 30 minutes)
2 (50) N (%): Any Event (treatment-emergent adverse event) ([1]; 16.7 mg, 4 subjects dosed) | Tingling (treatment-emergent adverse event) ([1]; 16.7 mg, 4 subjects dosed)
